Like-named read-outs stand apart in the source and are kept apart here.
Tests used:
[1] = In vitro skin diffusion test (penetration through the skin); type: in vitro ADME; conditions: rat skin; listed as compound A
From the text: The penetration through the skin of the compounds for administration according to the invention may be observed in standard in vitro or in vivo tests.
One in vitro test is the well known diffusion test which may be effected according to the principles set out in GB 2098865 A and by T. J. Franz in J. Invest. Dermatol. (1975) 64, 194-195. Solutions containing the active agent in unlabelled or radioactively labelled form are applied to one side of isolated pieces of intact human skin or hairless rat skin about 2 cm^2 in area. The other side of the skin is in contact with physiological saline. The amount of active agent in the saline is measured in conventional manner, e.g. by HPLC or spectrophotometric techniques, or by determining the radioactivity.
In this test using rat skin the following penetration rates, for example, have been found: […]

[2] = tested on: dopamine metabolism in striatum; test: Influence on dopamine metabolism; type: in vivo, rat
Method: Influence on dopamine metabolism
Male OFA rats (150-200 g) were used both for acute and subchronic experiments. The animals are maintained under 12 hour periods of light and dark. The animals are sacrificed always between 11.00 and 13.00 h. The brains are excised immediately, dissected on ice according to the method of GLOWINSKI and IVERSEN, J. Neurochem. 13, 655 (1966), frozen on dry ice and the tissue samples stored at -80° C. until analysis.
Dopamine and its metabolites DOPAC (3,4-dihydroxyphenylacetic acid) and HVA (homovanillic acid) are determined in brain tissue extracts which are obtained by homogenisation of the stored brain tissue samples in 0.1N HCl containing 0.05 mM ascorbic acid and subsequent centrifugation. Striatal and cortical tissues are used.
The determination of the metabolites is performed using either the gas chromatography/mass fragmentography (GCMS) technique as described by KAROUM et al., J. Neurochem. 25, 653 (1975) and CATABENI et al., Science 178, 166 (1972) or the fluorometric method as described by […] and MAITRE, Analyt. Biochem. 51, 474 (1973). For the GCMS method, tissue extracts are prepared by adding known amounts of deuterated monoamines and their respective metabolites as internal standards.

AChE [3] = target: T1, AChE (Rattus norvegicus, UniProt P37136); test: in vivo; set-up: Rat brain tissue is homogenized in cold phosphate buffer pH 7.3; from tissue; host or cells: rat brain (cortex, hippocampus, striatum), supernatant of Triton X-100 homogenate; conditions: for ED50: rat, po, 0.5 h
T1 sequence (P37136 32-614): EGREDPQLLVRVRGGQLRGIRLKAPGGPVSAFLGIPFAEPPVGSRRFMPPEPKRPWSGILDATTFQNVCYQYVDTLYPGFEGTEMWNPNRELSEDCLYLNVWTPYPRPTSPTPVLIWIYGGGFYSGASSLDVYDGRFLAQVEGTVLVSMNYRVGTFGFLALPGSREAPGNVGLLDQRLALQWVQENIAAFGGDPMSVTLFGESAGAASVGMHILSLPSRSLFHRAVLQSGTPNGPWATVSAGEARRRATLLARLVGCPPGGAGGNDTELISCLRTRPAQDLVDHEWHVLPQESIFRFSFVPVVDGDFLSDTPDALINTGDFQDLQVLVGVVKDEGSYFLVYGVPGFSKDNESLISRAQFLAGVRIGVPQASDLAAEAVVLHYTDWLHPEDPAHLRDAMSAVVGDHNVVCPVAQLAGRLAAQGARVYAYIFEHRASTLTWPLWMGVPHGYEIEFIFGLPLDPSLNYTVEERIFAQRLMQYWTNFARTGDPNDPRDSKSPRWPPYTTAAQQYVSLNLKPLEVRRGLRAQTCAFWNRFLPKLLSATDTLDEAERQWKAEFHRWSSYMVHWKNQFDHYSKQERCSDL
Method: (§1) The AChE activity is measured according to the method described by Ellman (Arch. Biochem. Biophys. 82, 70, 1959). Rat brain tissue is homogenized in cold phosphate buffer pH 7.3 (0.25 mM) containing 0.1% of Triton X-100. After centrifugation aliquots of the clear supernatant is used as enzyme source. The enzyme is preincubated with different concentrations of the inhibitor. After different times, substrate (acetylthiocholinjodide 0.5 mM) is added and the remaining activity determined.
Acetylcholinesterase inhibition ex vivo in different rat brain regions
The method is as disclosed above.

[4] = target: T2, AChE preparations of different rat brain regions (Rattus norvegicus, UniProt P37136); test: Acetylcholinesterase inhibition in different rat brain regions (in vitro, Ellman); type: biochemical; conditions: table 1
T2 construct: Rat brain tissue is homogenized in cold phosphate buffer pH 7.3; from tissue; host or cells: rat brain (cortex, hippocampus, striatum), supernatant of Triton X-100 homogenate
T2 sequence (P37136 32-614): as above
Method: Acetylcholinesterase inhibition in different rat brain regions
AChE preparations of different rat brain regions (Cortex, hippocampus and striatum) are used in this test and the IC50 (inhibitory concentrations in μM) are determined. The enzyme preparations are preincubated with the inhibitor 15 minutes before the determination.
as §1

AChE [5] = target: T1, AChE; test: in vivo; type: in vivo; set-up: from tissue; host or cells: male OFA rats: cortex, hippocampus, striatum, pons/medulla, heart, blood; conditions: for remaining activity at 10 µmol/kg: rat, po
[6] = six hours after 10 μmol/kg p.o.
[7] = Subcutaneous 8 μmol/kg, 0.5 hours after treatment
[8] = Subcutaneous 8 μmol/kg, 6 hours after treatment
[9] = Subcutaneous 8 μmol/kg, 24 hours after treatment
[10] = Transdermal 30 μmol/kg, 0.5 hours after treatment
[11] = Transdermal 30 μmol/kg, 6 hours after treatment
[12] = Transdermal 30 μmol/kg, 24 hours after treatment

## CCN(C)C(=O)Oc1cccc([C@H](C)N(C)C)c1 [Compound A, (S)-N-ethyl-3-[(1-dimethylamino)ethyl]-N-methyl-phenyl-carbamate]
[1]
  penetration rate: 23.6±14.9%
[2]; following administration
  dopamine metabolism in striatum: increased
[2]; rat, in vivo
  enhancing the striatal dopamine metabolite concentration, comparison: more active than compound B and racemate C
AChE [3]; read-out: IC50 ex vivo AChE, cortex
  ED50: 2 µmol/kg
AChE [3]; read-out: IC50 ex vivo AChE, hippocampus
  ED50: 4 µmol/kg
AChE [3]; read-out: IC50 ex vivo AChE, striatum
  ED50: 7 µmol/kg
AChE [3]; [6]
  AChE inhibition ex vivo, cortex: 39%
  AChE inhibition ex vivo, hippocampus: 44%
  AChE inhibition ex vivo, striatum: 16%
[4]
  AChE inhibition in vitro, comparison in words: slightly superior than that with racemate C
AChE [5]; [7]
  AChE activity in % of controls ± SD, Blood: 17.4 ± 4.1 % of controls
  AChE activity in % of controls ± SD, Cortex: 16.8 ± 2.0 % of controls
  AChE activity in % of controls ± SD, Heart: 33.3 ± 5.6 % of controls
  AChE activity in % of controls ± SD, Hippocampus: 18.3 ± 3.1 % of controls
  AChE activity in % of controls ± SD, Pons/Medulla: 20.9 ± 2.9 % of controls
  AChE activity in % of controls ± SD, Striatum: 28.2 ± 12.2 % of controls
AChE [5]; [8]
  AChE activity in % of controls ± SD, Blood: 79.5 ± 8.2 % of controls
  AChE activity in % of controls ± SD, Cortex: 85.1 ± 1.6 % of controls
  AChE activity in % of controls ± SD, Heart: 51.0 ± 17.9 % of controls
  AChE activity in % of controls ± SD, Hippocampus: 81.4 ± 7.6 % of controls
  AChE activity in % of controls ± SD, Pons/Medulla: 87.1 ± 4.1 % of controls
  AChE activity in % of controls ± SD, Striatum: 82.9 ± 2.8 % of controls
AChE [5]; [9]
  AChE activity in % of controls ± SD, Blood: 105.7 ± 16.8 % of controls
  AChE activity in % of controls ± SD, Cortex: 93.8 ± 5.9 % of controls
  AChE activity in % of controls ± SD, Heart: 65.7 ± 21.2 % of controls
  AChE activity in % of controls ± SD, Hippocampus: 99.9 ± 9.9 % of controls
  AChE activity in % of controls ± SD, Pons/Medulla: 98.7 ± 6.0 % of controls
  AChE activity in % of controls ± SD, Striatum: 91.0 ± 2.3 % of controls
AChE [5]; [10]
  AChE activity in % of controls ± SD, Cortex: 86.1 ± 5.6 % of controls
  AChE activity in % of controls ± SD, Heart: 109.0 ± 9.3 % of controls
  AChE activity in % of controls ± SD, Hippocampus: 86.7 ± 5.9 % of controls
  AChE activity in % of controls ± SD, Pons/Medulla: 91.5 ± 3.8 % of controls
  AChE activity in % of controls ± SD, Striatum: 89.7 ± 8.4 % of controls
AChE [5]; [11]
  AChE activity in % of controls ± SD, Blood: 41.9 ± 13.1 % of controls
  AChE activity in % of controls ± SD, Heart: 52.0 ± 13.1 % of controls
  AChE activity in % of controls ± SD, Hippocampus: 45.7 ± 15.0 % of controls
  AChE activity in % of controls ± SD, Pons/Medulla: 53.6 ± 13.3 % of controls
AChE [5]; [12]
  AChE activity in % of controls ± SD, Cortex: 73.8 ± 5.7 % of controls
  AChE activity in % of controls ± SD, Heart: 63.9 ± 12.5 % of controls
  AChE activity in % of controls ± SD, Hippocampus: 80.4 ± 8.8 % of controls
  AChE activity in % of controls ± SD, Pons/Medulla: 85.3 ± 4.2 % of controls
  AChE activity in % of controls ± SD, Striatum: 81.0 ± 8.2 % of controls
AChE [5]; oral
  time of maximal AChE inhibition: 15 min
AChE [5]; read-out: AChE activity in % of controls ± SD, Blood, Oral 10 μmol/kg, 0.5 hours after treatment
  remaining activity at 10 µmol/kg: 34 ± 2%
AChE [5]; read-out: AChE activity in % of controls ± SD, Blood, Oral 10 μmol/kg, 6 hours after treatment
  remaining activity at 10 µmol/kg: 77.2 ± 14.7%
AChE [5]; read-out: AChE activity in % of controls ± SD, Blood, Oral 10 μmol/kg, 24 hours after treatment
  remaining activity at 10 µmol/kg: 97.2 ± 13.8%
AChE [5]; read-out: AChE activity in % of controls ± SD, Cortex, Oral 10 μmol/kg, 0.5 hours after treatment
  remaining activity at 10 µmol/kg: 21 ± 3.5%
AChE [5]; read-out: AChE activity in % of controls ± SD, Cortex, Oral 10 μmol/kg, 6 hours after treatment
  remaining activity at 10 µmol/kg: 65.3 ± 21.3%
AChE [5]; read-out: AChE activity in % of controls ± SD, Cortex, Oral 10 μmol/kg, 24 hours after treatment
  remaining activity at 10 µmol/kg: 99.2 ± 8.9%
AChE [5]; read-out: AChE activity in % of controls ± SD, Heart, Oral 10 μmol/kg, 0.5 hours after treatment
  remaining activity at 10 µmol/kg: 71.2 ± 11.2%
AChE [5]; read-out: AChE activity in % of controls ± SD, Heart, Oral 10 μmol/kg, 6 hours after treatment
  remaining activity at 10 µmol/kg: 101 ± 7%
AChE [5]; read-out: AChE activity in % of controls ± SD, Heart, Oral 10 μmol/kg, 24 hours after treatment
  remaining activity at 10 µmol/kg: 94.2 ± 9.2%
AChE [5]; read-out: AChE activity in % of controls ± SD, Hippocampus, Oral 10 μmol/kg, 0.5 hours after treatment
  remaining activity at 10 µmol/kg: 19.7 ± 3.8%
AChE [5]; read-out: AChE activity in % of controls ± SD, Hippocampus, Oral 10 μmol/kg, 6 hours after treatment
  remaining activity at 10 µmol/kg: 62 ± 15.4%
AChE [5]; read-out: AChE activity in % of controls ± SD, Hippocampus, Oral 10 μmol/kg, 24 hours after treatment
  remaining activity at 10 µmol/kg: 97.2 ± 7.1%
AChE [5]; read-out: AChE activity in % of controls ± SD, Pons/Medulla, Oral 10 μmol/kg, 0.5 hours after treatment
  remaining activity at 10 µmol/kg: 26.6 ± 4%
AChE [5]; read-out: AChE activity in % of controls ± SD, Pons/Medulla, Oral 10 μmol/kg, 6 hours after treatment
  remaining activity at 10 µmol/kg: 80.3 ± 9.2%
AChE [5]; read-out: AChE activity in % of controls ± SD, Pons/Medulla, Oral 10 μmol/kg, 24 hours after treatment
  remaining activity at 10 µmol/kg: 104 ± 6.8%
AChE [5]; read-out: AChE activity in % of controls ± SD, Striatum, Oral 10 μmol/kg, 0.5 hours after treatment
  remaining activity at 10 µmol/kg: 32.9 ± 10.7%
AChE [5]; read-out: AChE activity in % of controls ± SD, Striatum, Oral 10 μmol/kg, 6 hours after treatment
  remaining activity at 10 µmol/kg: 87.5 ± 8.8%
AChE [5]; read-out: AChE activity in % of controls ± SD, Striatum, Oral 10 μmol/kg, 24 hours after treatment
  remaining activity at 10 µmol/kg: 96.7 ± 3.3%
AChE [5]; subcutaneous
  time of maximal AChE inhibition: 30 min
AChE [5]; transdermal
  AChE inhibition after transdermal administration: long-lasting, dose-dependent inhibition of AChE activity
  time of maximal AChE inhibition: > 120 min
AChE [5]; twenty four hours after oral application
  AChE activity: has no effect on the enzyme
AChE [5]; twenty four hours after s.c. application
  AChE activity: only the enzyme in the heart is significantly inhibited
AChE [5]; twenty four hours after transdermal application
  AChE activity: still inhibited in central and peripheral regions

Source: patent US5602176A, “Phenyl carbamate” (priority 1987, dated 1997)
